In US7326288B2, “Trisazo compound, ink composition, and colored object” (Nippon Kayaku Kabushiki Kaisha, priority 2003, dated 2008):

experiment: solubility in water of the isolated trisazo compound; type: physicochemical; conditions: not given

| solubility [mg/mL] | SMILES |
| --- | --- |
| ≥ 100 | COc1ccc(N=Nc2c(S(=O)(=O)O)cc3c(S(=O)(=O)O)c(N=Nc4cc(S(=O)(=O)O)c5cc(S(=O)(=O)O)c(N=Nc6ccc([N+](=O)[O-])cc6S(=O)(=O)O)c(O)c5c4N)ccc3c2O)c(S(=O)(=O)O)c1 [compound 1] |
| ≥ 100 | Nc1c(N=Nc2ccc3c(O)c(N=Nc4ccc(S(=O)(=O)O)cc4C(=O)O)c(S(=O)(=O)O)cc3c2S(=O)(=O)O)cc(S(=O)(=O)O)c2cc(S(=O)(=O)O)c(N=Nc3ccc([N+](=O)[O-])cc3S(=O)(=O)O)c(O)c12 [compound 2] |
| ≥ 100 | Nc1c(N=Nc2ccc3c(O)c(N=Nc4cc(C(=O)O)ccc4C(=O)O)c(S(=O)(=O)O)cc3c2S(=O)(=O)O)cc(S(=O)(=O)O)c2cc(S(=O)(=O)O)c(N=Nc3ccc([N+](=O)[O-])cc3S(=O)(=O)O)c(O)c12 [compound 3] |
| ≥ 100 | Nc1c(N=Nc2ccc3c(O)c(N=Nc4ccc(S(N)(=O)=O)cc4C(=O)O)c(S(=O)(=O)O)cc3c2S(=O)(=O)O)cc(S(=O)(=O)O)c2cc(S(=O)(=O)O)c(N=Nc3ccc([N+](=O)[O-])cc3S(=O)(=O)O)c(O)c12 [compound 4] |
| ≥ 100 | CNS(=O)(=O)c1ccc(N=Nc2c(S(=O)(=O)O)cc3c(S(=O)(=O)O)c(N=Nc4cc(S(=O)(=O)O)c5cc(S(=O)(=O)O)c(N=Nc6ccc([N+](=O)[O-])cc6S(=O)(=O)O)c(O)c5c4N)ccc3c2O)c(C(=O)O)c1 [compound 9] |
| ≥ 100 | Nc1c(N=Nc2ccc3c(O)c(N=Nc4cc(C(=O)O)cc(C(=O)O)c4)c(S(=O)(=O)O)cc3c2S(=O)(=O)O)cc(S(=O)(=O)O)c2cc(S(=O)(=O)O)c(N=Nc3ccc([N+](=O)[O-])cc3S(=O)(=O)O)c(O)c12 [compound 24] |
| ≥ 100 | Nc1c(N=Nc2ccc3c(O)c(N=Nc4cc(C(=O)O)cc(C(=O)O)c4)c(S(=O)(=O)O)cc3c2S(=O)(=O)O)cc(S(=O)(=O)O)c2cc(S(=O)(=O)O)c(N=Nc3ccc(S(=O)(=O)O)cc3[N+](=O)[O-])c(O)c12 [compound 26] |

| SMILES | solubility [mg/mL] |
| --- | --- |
| Nc1c(N=Nc2ccc3c(O)c(N=Nc4ccc([N+](=O)[O-])cc4S(=O)(=O)O)c(S(=O)(=O)O)cc3c2S(=O)(=O)O)cc(S(=O)(=O)O)c2cc(S(=O)(=O)O)c(N=Nc3ccc([N+](=O)[O-])cc3S(=O)(=O)O)c(O)c12 [compound 5] | ≥ 100 |
| Nc1c(N=Nc2ccc3c(O)c(N=Nc4cc(S(=O)(=O)O)c5cc([N+](=O)[O-])cc(S(=O)(=O)O)c5c4)c(S(=O)(=O)O)cc3c2S(=O)(=O)O)cc(S(=O)(=O)O)c2cc(S(=O)(=O)O)c(N=Nc3ccc([N+](=O)[O-])cc3S(=O)(=O)O)c(O)c12 [compound 20] | ≥ 100 |

experiment: Solubility Test (ammonia alkalinity, spot on filter paper); type: physicochemical; conditions: aqueous buffer, thermodynamic from solid
Description: Using ion exchanged water for a water, pH was adjusted at 9 to 9.5 with aqueous ammonia. They were treated with ultrasonic vessel at ordinary temperature. Toyo Filter Paper No. 131 was spotted with them, surface of which after dried was observed and solubility of which was determined. When a spot was uniform and insoluble material were not observed, it was judged to be soluble. When a spot was ununiform and insoluble material were observed, it was judged to be not soluble.

| solubility [mg/mL] | SMILES |
| --- | --- |
| ≥ 120 | Nc1c(N=Nc2ccc3c(O)c(N=Nc4cc(S(=O)(=O)O)ccc4S(=O)(=O)O)c(S(=O)(=O)O)cc3c2S(=O)(=O)O)cc(S(=O)(=O)O)c2cc(S(=O)(=O)O)c(N=Nc3ccc([N+](=O)[O-])cc3S(=O)(=O)O)c(O)c12 [Formula (2-10)] |
